Results from US20110251238A1, “PPAR AGONIST COMPOSITIONS AND METHODS OF USE” (BIOPHARMED, priority 2008, published 2011).

What was measured:
[1] = test system: Host; test: Growth inhibition, MTT colorimetric assay, Host; format: cell-based; conditions: 72 h; 3 days with drug; means of six values; unit inferred; read-out: IC50 Host
How it was run: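 Cells were cultured with compound for 3 days, and inhibition of proliferation was read by MTT colorimetric assay. Values are IC50, each the mean of six determinations with standard errors below 5% of the mean.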

[2] = test system: HT-22, an immortalized mouse hippocampal cell line; test: Neuroprotection of HT-22 cells against toxic insults (calcein viability assay); format: cell-based
Method: It is known (P. Aoun, 2003 Eur. J. Pharm. 472:65-71) that Peroxisome proliferator-activated receptors (PPARs) are involved in regulating many metabolic and inflammatory processes. The present invention explores the role of PPAR ligands in protecting neuronal cultures from toxic insults. For that purpose, the new PPAR agonists described in Example 1 were screened for their potential role as neuroprotective compounds. Experiments were performed using HT-22, an immortalized mouse hippocampal cell line, and SK-N-SH, a human neuroblastoma cell line. HT-22 was selected because it expresses PPARγ receptors. Cell viability against glutamate, hydrogen peroxide (H2O2), and serum deprivation insults was determined using a calcein assay. […] Additionally, compounds were protective even when administered simultaneously with glutamate, or for up to 8 h postglutamate insult.
HT-22, an immortalized mouse hippocampal cell line, and SK-N-SH, a human neuroblastoma cell line, were used. HT-22 cells were obtained from David Schubert (Salk Institute, San Diego, Calif.). The HT-22 line was originally selected from HT-4 cells based on glutamate sensitivity. SK-N-SH cells were obtained from ATCC (Manassas, Va.). HT-22 and SK-N-SH cells were grown to confluency in Dulbecco's modified essential medium (DMEM) and RPMI-1640 media, respectively, and supplemented with 10% charcoal/dextran-treated fetal bovine serum (FBS) and […] gentamicin at 37° C. under 95% air/5% CO2. HT-22 cells were plated at a density of 50,000 cells/ml (5000 cells/well), and SK-N-SH cells were plated at a density of 120,000-150,000 cells/ml (12,000-15,000 cells/well) in 96-well plates. In most studies, wells were pretreated with PPAR ligands over a wide dose range at various times prior to being subjected to either glutamate, hydrogen peroxide, or serum deprivation insults. In some studies, the insults were applied prior to the addition of the PPAR ligand.
The following analogues were tested on the HT22 cell line for their neuroprotective effect against glutamate insult and for their anti-inflammatory activity on relevant, models including HT22 cell line.

Structure (SMILES): Oc1ccc(CN(Cc2ccc(C(F)(F)F)cc2)Cc2ccc(O)c3ncccc23)c2cccnc12 [BPM18,708, 5,5′-(4-(trifluoromethyl)benzylazanediyl)bis(methylene)diquinolin-8-ol]
- IC50 [1]: 97 nM
- neuroprotection from H2O2 insult [2]: dose-dependent neuroprotection
- neuroprotection from glutamate insult [2]: dose-dependent neuroprotection
